From patent publication US20160185797A1, “ALKYNYL ALCOHOLS AND METHODS OF USE” (Genentech, Inc., priority 2013, published 2016)
Where two headings read alike, the source gives them in different places.

How the values were obtained:
[1] = target: T1, nuclear factor-kappa B (NF-kB)-inducing kinase (NIK) (Homo sapiens, UniProt Q99558); assay: NIK enzyme inhibition assay (Transcreener ADP fluorescence polarization, NIK ADP-FP); assay type: biochemical
T1 construct: made in house; host or cells: baculovirus-infected insect cells
T1 sequence (Q99558 whole entry): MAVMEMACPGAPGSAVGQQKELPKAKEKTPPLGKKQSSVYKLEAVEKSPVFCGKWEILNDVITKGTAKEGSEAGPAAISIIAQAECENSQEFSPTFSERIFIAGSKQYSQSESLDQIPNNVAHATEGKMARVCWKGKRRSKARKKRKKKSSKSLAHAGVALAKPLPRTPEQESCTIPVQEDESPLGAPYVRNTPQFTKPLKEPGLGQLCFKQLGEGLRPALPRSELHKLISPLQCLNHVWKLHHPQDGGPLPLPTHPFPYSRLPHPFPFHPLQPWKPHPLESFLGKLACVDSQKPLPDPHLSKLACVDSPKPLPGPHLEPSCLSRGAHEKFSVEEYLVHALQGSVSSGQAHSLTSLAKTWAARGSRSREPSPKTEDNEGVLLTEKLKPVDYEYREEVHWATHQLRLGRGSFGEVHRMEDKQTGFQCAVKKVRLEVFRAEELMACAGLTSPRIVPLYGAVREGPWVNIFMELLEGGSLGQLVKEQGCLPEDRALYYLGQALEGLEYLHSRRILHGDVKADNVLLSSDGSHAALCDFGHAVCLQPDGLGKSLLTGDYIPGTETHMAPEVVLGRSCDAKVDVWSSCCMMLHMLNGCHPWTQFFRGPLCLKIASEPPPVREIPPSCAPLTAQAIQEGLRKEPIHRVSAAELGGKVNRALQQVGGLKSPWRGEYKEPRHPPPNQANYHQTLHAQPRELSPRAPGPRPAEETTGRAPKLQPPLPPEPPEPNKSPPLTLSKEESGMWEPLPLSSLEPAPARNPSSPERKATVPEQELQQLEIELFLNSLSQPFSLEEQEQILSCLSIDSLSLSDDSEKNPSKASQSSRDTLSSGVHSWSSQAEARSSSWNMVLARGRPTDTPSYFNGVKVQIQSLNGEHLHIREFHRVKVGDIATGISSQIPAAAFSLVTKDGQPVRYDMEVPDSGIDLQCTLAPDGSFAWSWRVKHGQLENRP

[2] = test system: p52 (NF-kB2) nuclear translocation in HeLa cells; assay: p52 (NF-kB2) nuclear translocation assay in HeLa cells, anti-lymphotoxin beta receptor antibody stimulated (non-classical NF-kB signaling), high content imaging; assay type: cell-based; settings: 100 ng/mL anti-lymphotoxin beta receptor antibody for 5 hours, read-out: p52 HeLa Transloc Assay (IC50)
Protocol: (§1) Several assays were developed to profile the cellular activities of NIK inhibitors.
(§2) (2) A second set of cell assay are used to define the selectivity of NIK inhibitors toward inhibition of classical vs. non-classical NF-kB signaling and rely on quantification of the nuclear translocation of p52 (NF-kB2) and REL-A (p65) using high content cellular imaging. For the p52 (non-classical NF-kB signaling) nuclear translocation assay, HeLa cells are treated with different concentrations of compounds (0.2% DMSO final) in medium containing 10% fetal bovine serum and then stimulated with 100 ng/mL of an anti-lymphotoxin beta receptor antibody (R&D Systems) for 5 hours. In the REL-A nuclear translocation assay, HeLa cells are incubated with compounds (0.2% DMSO final) for 4.5 hours in medium containing 10% fetal bovine serum before stimulating them with 10 ng/mL tumor necrosis factor (TNF)-α (R&D Systems) for 30 minutes. Cells are fixed with 4% paraformaldehyde, permeabilized by adding 0.1% Triton X-100 in phosphate buffered saline, and then are incubated with either 2 ug/mL anti-p52 antibody (Millipore) or 400 ng/mL anti-REL-A (p65) antibody (Santa Cruz Biotechnology). Finally, the cells are incubated with an Alexa488-labeled secondary antibody (Invitrogen) and DRAQ5 DNA stain (Biostatus). Imaging is carried out using an Opera reader (Perkin Elmer) and data are analyzed with the aid of Acapella software (Perkin Elmer). The p52 or REL-Atranslocation into the nucleus is quantified by the ratio of the nuclear to cytoplasmic signal intensity. […] The compounds in listed in Table 1 have the corresponding inhibitory value (IC50 in micromolar) for NIK p52 Translocation Assay as set forth in Table 2.
(§3) The compounds in listed in Table 1 have the corresponding inhibitory values (IC50 in micromolar) for the Translocation Assays as set forth in Table 2.

[3] = test system: REL-A (p65) nuclear translocation in HeLa cells; assay: REL-A (p65) nuclear translocation assay in HeLa cells, TNF-α stimulated (classical NF-kB signaling), high content imaging; assay type: cell-based; settings: compound 4.5 h, then 10 ng/mL TNF-α for 30 minutes, read-out: REL-A HeLa Transloc Assay (IC50)
Protocol: as §1, §2, §3

Compound: CN1CC[C@@](O)(C#Cc2cccc(-c3nc(C(N)=O)c4ccn(C)c4n3)c2)C1=O [Example 39, 2-[3-[2-[(3R)-3-hydroxy-1-methyl-2-oxo-pyrrolidin-3-yl]ethynyl]phenyl]-7-methyl-pyrrolo[2,3-d] pyrimidine-4-carboxamide]
- Ki [1]: 0.13 nM
- IC50 ([2]; Homo sapiens): 20.9 nM
- IC50 ([3]; Homo sapiens, HeLa): 7700 nM

Compound: CN1CC[C@@](O)(C#Cc2cccc(-c3nc(C(N)=O)c4cccc(F)c4n3)c2)C1=O [Example 41, 8-fluoro-2-[3-[2-[(3R)-3-hydroxy-1-methyl-2-oxo-pyrrolidin-3-yl]ethynyl]phenyl]quinazoline-4-carboxamide]
- Ki [1]: 0.22 nM
- IC50 ([2]; Homo sapiens): 26.4 nM
- IC50 ([3]; Homo sapiens, HeLa): > 20000 nM

Compound: CN1CC[C@@](O)(C#Cc2cccc(-c3nc(C(N)=O)c4cnn(C)c4n3)c2)C1=O [Example 42, 6-(3-[2-[(3R)-3-hydroxy-1-methyl-2-oxopyrrolidin-3-yl]ethynyl]phenyl)-1-methyl-1H-pyrazolo[3,4-d] pyrimidine-4-carboxamide]
- Ki [1]: 0.1 nM
- IC50 ([2]; Homo sapiens): 10.9 nM
- IC50 ([3]; Homo sapiens, HeLa): > 20000 nM

Compound: CN1CC[C@@](O)(C#Cc2cccc(-c3nc(C(N)=O)c4ccc(F)cc4n3)c2)C1=O [Example 43, 7-fluoro-2-(3-[2-[(3R)-3-hydroxy-1-methyl-2-oxopyrrolidin-3-yl]ethynyl]phenyl)quinazoline-4-carboxamide]
- Ki [1]: 0.08 nM
- IC50 ([2]; Homo sapiens): 14.1 nM
- IC50 ([3]; Homo sapiens, HeLa): > 20000 nM

Compound: COc1ccc2c(C(N)=O)nc(-c3cccc(C#C[C@]4(O)CCN(C)C4=O)c3)nc2c1 [Example 44, 2-(3-[2-[(3R)-3-hydroxy-1-methyl-2-oxopyrrolidin-3-yl]ethynyl]phenyl)-7-methoxyquinazoline-4-carboxamide]
- Ki [1]: 0.11 nM
- IC50 ([2]; Homo sapiens): 17.5 nM
- IC50 ([3]; Homo sapiens, HeLa): > 20000 nM

Compound: CN1CC[C@@](O)(C#Cc2cccc(-c3nc(C(N)=O)cc4c3CCC4)c2)C1=O [Example 46, 1-(3-[2-[(3R)-3-hydroxy-1-methyl-2-oxopyrrolidin-3-yl]ethynyl]phenyl)-5H,6H,7H-cyclopenta[c] pyridine-3-carboxamide]
- Ki [1]: 0.62 nM
- IC50 ([2]; Homo sapiens): 103 nM
- IC50 ([3]; Homo sapiens, HeLa): > 20000 nM

Compound: CN1CC[C@@](O)(C#Cc2cccc(-c3nc(C(N)=O)cc4c3ncn4C)c2)C1=O [Example 47, 4-[3-[2-[(3R)-3-hydroxy-1-methyl-2-oxo-pyrrolidin-3-yl]ethynyl]phenyl]-1-methyl-imidazo[4,5-c] pyridine-6-carboxamide]
- Ki [1]: 0.94 nM
- IC50 ([2]; Homo sapiens): 270 nM
- IC50 ([3]; Homo sapiens, HeLa): ≥ 20000 nM

Compound: CN1CC[C@@](O)(C#Cc2cccc(-c3nc(C(N)=O)cn4ccnc34)c2)C1=O [Example 48, 8-[3-[2-[(3R)-3-hydroxy-1-methyl-2-oxo-pyrrolidin-3-yl]ethynyl]phenyl] imidazo[1,2-a]pyrazine-6-carboxamide]
- Ki ([1]; purified NIK 0.5 nM, 10 μM ATP, pH 7.2, Ki from Morrison's quadratic equation): 0.39 nM
- IC50 [2]: 122 nM
- IC50 [3]: ≥ 20000 nM

Compound: CN1CC[C@@](O)(C#Cc2cccc(-c3cc4cc[nH]c4c(C(N)=O)n3)c2)C1=O [Example 49, 5-[3-[2-[(3R)-3-hydroxy-1-methyl-2-oxo-pyrrolidin-3-yl]ethynyl]phenyl]-1H-pyrrolo [2,3-c]pyridine-7-carboxamide]
- Ki [1]: 0.05 nM
- IC50 ([2]; Homo sapiens): 8.2 nM
- IC50 ([3]; Homo sapiens, HeLa): ≥ 2000 nM

Compound: CN1CC[C@@](O)(C#Cc2cccc(-c3nc(C(N)=O)nc4c3ccn4C)c2)C1=O [Example 50, 4-[3-[2-[(3R)-3-hydroxy-1-methyl-2-oxo-pyrrolidin-3-yl]ethynyl]phenyl]-7-methyl-pyrrolo[2,3-d]pyrimidine-2-carboxamide]
- Ki [1]: 1.08 nM
- IC50 ([2]; Homo sapiens): 346 nM
- IC50 ([3]; Homo sapiens, HeLa): ≥ 20000 nM

Compound: CN1CC[C@@](O)(C#Cc2cccc(-c3cc(-n4cncn4)cc(C(N)=O)n3)c2)C1=O [Example 51, 6-[3-[2-[(3R)-3-hydroxy-1-methyl-2-oxo-pyrrolidin-3-yl]ethynyl]phenyl]-4-(1,2,4-triazol-1-yl)pyridine-2-carboxamide]
- Ki [1]: 0.23 nM
- IC50 ([2]; Homo sapiens): 129 nM
- IC50 ([3]; Homo sapiens, HeLa): ≥ 20000 nM
